One assay concerns TNFα. The assay is described as follows: cells. The assay is classed as cell-based, human. To be noted: Homo sapiens, Monocyte, LPS-stimulated human monocytes, TNFα by TR-FRET; read-out: EC50 TNF. (In general: Time-resolved FRET reads energy transfer from a long-lived donor to a nearby acceptor.)
A further assay has as its target IRAK4 enzyme (Homo sapiens (Human), UniProt Q9NWZ3). The assay is described as follows: biochemical. Type of assay: biochemical. To be noted: IRAK4 enzyme, TR-FRET, 500 μM ATP.

What is called EC50 is the midpoint of the concentration-response curve. Usually IC50 stands for the concentration that inhibits the measured activity by half. Lower therefore signals greater potency in that assay.

IRAK4 enzyme, sequence (Q9NWZ3 whole entry): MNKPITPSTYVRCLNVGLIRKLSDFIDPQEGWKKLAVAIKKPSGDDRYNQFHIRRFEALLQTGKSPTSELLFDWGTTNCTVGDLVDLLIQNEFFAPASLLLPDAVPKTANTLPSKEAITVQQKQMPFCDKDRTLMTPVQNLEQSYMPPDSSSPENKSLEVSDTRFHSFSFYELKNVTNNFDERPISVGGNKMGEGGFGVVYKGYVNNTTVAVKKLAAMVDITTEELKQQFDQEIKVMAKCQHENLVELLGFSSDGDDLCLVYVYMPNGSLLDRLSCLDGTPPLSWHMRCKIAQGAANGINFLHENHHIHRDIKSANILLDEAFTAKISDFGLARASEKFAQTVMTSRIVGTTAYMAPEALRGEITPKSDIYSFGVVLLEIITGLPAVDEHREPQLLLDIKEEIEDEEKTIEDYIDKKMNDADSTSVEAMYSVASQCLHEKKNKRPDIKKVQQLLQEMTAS

As for `CC(C)Nc1cc(-c2ccc3cc(C#N)cnn23)ncc1C(=O)NCC(=O)N1CC(F)(F)C1` [Example 807, 6-(3-cyanopyrrolo[1,2-b]pyridazin-7-yl)-N-(2-(3,3-difluoroazetidin-1-yl)-2-oxoethyl)-4-(isopropylamino) nicotinamide], the EC50 with TNFα came to 75 nM. Further, the IC50 at IRAK4 enzyme was 2 nM.

Consider `CC(C)(C)OC(=O)CNC(=O)c1cnc(-c2ccc3cc(C#N)cnn23)cc1NC12CCC(O)(CC1)CC2` [Example 808, tert-butyl (6-(3-cyano-pyrrolo[1,2-b]pyridazin-7-yl)-4-((4-hydroxy-bicyclo[2.2.2]octan-1-yl)amino)nicotinoyl) glycinate], for which, in the assay with TNFα, the EC50 was 15 nM. The IC50 at IRAK4 enzyme was < 1 nM.

For `N#Cc1cnn2c(-c3cc(NC45CCC(O)(CC4)CC5)c(C(=O)NCCN4CCCC4=O)cn3)ccc2c1` [Example 809, 6-(3-cyanopyrrolo[1,2-b]pyridazin-7-yl)-4-((4-hydroxybicyclo[2.2.2]octan-1-yl)amino)-N-(2-(2-oxopyrrolidin-1-yl)ethyl)nicotinamide], the EC50 in the assay on TNFα was 166 nM. At IRAK4 enzyme, this compound registered an IC50 of 1 nM.

For the compound `CC(C)(O)C(=O)CNC(=O)c1cnc(-c2ccc3cc(C#N)cnn23)cc1NC12CCC(O)(CC1)CC2` [Example 810, 6-(3-cyanopyrrolo[1,2-b]pyridazin-7-yl)-N-(3-hydroxy-3-methyl-2-oxobutyl)-4-((4-hydroxy-bicyclo[2.2.2]octan-1-yl)amino)nicotinamide], the EC50 in the assay with TNFα amounted to 9 nM. Further, at IRAK4 enzyme, the IC50 is < 1 nM.

Take `N#Cc1cnn2c(-c3cc(NC45CCC(O)(CC4)CC5)c(C(=O)NCC(=O)c4ccccc4)cn3)ccc2c1` [Example 811, 6-(3-cyanopyrrolo[1,2-b]pyridazin-7-yl)-4-((4-hydroxybicyclo[2.2.2]octan-1-yl)amino)-N-(2-oxo-2-phenylethyl) nicotinamide]: in the assay with TNFα, the EC50 is 32 nM. On IRAK4 enzyme, the IC50 was < 1 nM.

Regarding `CC(C)Nc1cc(-c2ccc3cc(C#N)cnn23)ncc1C(=O)NCC(=O)OC(C)(C)C` [Example 812, tert-butyl (6-(3-cyano-pyrrolo[1,2-b]pyridazin-7-yl)-4-(isopropylamino)nicotinoyl)glycinate], the EC50 in the assay on TNFα came to 38 nM. Besides, at IRAK4 enzyme, the IC50 is < 1 nM.

Regarding `CC(C)(C)NC(=O)CNC(=O)c1cnc(-c2ccc3cc(C#N)cnn23)cc1NC12CCC(O)(CC1)CC2` [Example 813, N-(2-(tert-butylamino)-2-oxoethyl)-6-(3-cyano-pyrrolo[1,2-b]pyridazin-7-yl)-4-((4-hydroxy-bicyclo[2.2.2]octan-1-yl)amino)nicotinamide], the EC50 in the assay with TNFα was 92 nM. The IC50 against IRAK4 enzyme is < 1 nM.

For the compound `CN(C(=O)CNC(=O)c1cnc(-c2ccc3cc(C#N)cnn23)cc1NC12CCC(O)(CC1)CC2)C(C)(C)C` [Example 814, N-(2-(tert-butyl(methyl)amino)-2-oxoethyl)-6-(3-cyanopyrrolo[1,2-b]pyridazin-7-yl)-4-((4-hydroxybicyclo[2.2.2]octan-1-yl)amino) nicotinamide], in the assay on TNFα, the EC50 was determined as 40 nM. Besides, the IC50 at IRAK4 enzyme was < 1 nM.

On to `COC(=O)NC[C@H]1C[C@H](Nc2cc(-c3ccc4cc(C#N)cnn34)ncc2C(=O)NCC(=O)C(C)(C)O)C1` [Example 815, methyl (((1r,3r)-3-((2-(3-cyanopyrrolo[1,2-b]pyridazin-7-yl)-5-((3-hydroxy-3-methyl-2-oxobutyl)carbamoyl)pyridin-4-yl)amino)cyclo-butyl)methyl)carbamate], for which the EC50 in the assay on TNFα amounted to 15 nM. Moreover, the IC50 against IRAK4 enzyme was < 1 nM.

As for `COC(=O)NC[C@H]1C[C@H](Nc2cc(-c3ccc4cc(C#N)cnn34)ncc2C(=O)NCCC(C)(C)NC(=O)OC(C)(C)C)C1` [Example 816, methyl (((1r,3r)-3-((5-((3-((tert-butoxy-carbonyl)amino)-3-methylbutyl)carbamoyl)-2-(3-cyanopyrrolo[1,2-b]pyridazin-7-yl)pyridin-4-yl)amino)cyclobutyl)methyl)carbamate], the EC50 in the assay on TNFα was 41 nM. Further, the IC50 on IRAK4 enzyme is < 1 nM.

Regarding `CC(C)Nc1cc(-c2ccc3cccnn23)ncc1C(=O)NC[C@@H](F)C(C)(C)O` [Example 817, (R)-N-(2-fluoro-3-hydroxy-3-methylbutyl)-4-(isopropyl-amino)-6-(pyrrolo[1,2-b]pyridazin-7-yl)nicotinamide], the EC50 in the assay with TNFα was 165 nM. On IRAK4 enzyme, this compound came in with an IC50 of 6 nM.

`COC(=O)NC[C@H]1C[C@H](Nc2cc(-c3ccc4cccnn34)ncc2C(=O)NC[C@@H](F)C(C)(C)O)C1` [Example 818, methyl (((1R,3r)-3-((5-(((R)-2-fluoro-3-hydroxy-3-methylbutyl)carbamoyl)-2-(pyrrolo[1,2-b]pyridazin-7-yl)pyridin-4-yl)amino)cyclo-butyl)methyl)carbamate]: the EC50 in the assay on TNFα came to 224 nM. Besides, it took 4 nM to reach half-maximal inhibition against IRAK4 enzyme (IC50).

Take `COC(=O)NC[C@H]1C[C@H](Nc2cc(-c3ccc4cc(C#N)cnn34)ncc2C(=O)NCCC(C)(C)N)C1` [Example 819, methyl (((1r,3r)-3-((5-((3-amino-3-methylbutyl)carbamoyl)-2-(3-cyano-pyrrolo[1,2-b]pyridazin-7-yl)pyridin-4-yl)amino)cyclo-butyl)methyl)carbamate]: the EC50 in the assay on TNFα was determined as 27 nM. For the same compound, the IC50 on IRAK4 enzyme is < 1 nM.

In the case of `CC(C)(O)[C@H](F)CNC(=O)c1cnc(-c2ccc3cc(C#N)cnn23)cc1Nc1ccc2ncccc2c1` [Example 820, (R)-6-(3-cyanopyrrolo[1,2-b]pyridazin-7-yl)-N-(2-fluoro-3-hydroxy-3-methylbutyl)-4-(quinolin-6-ylamino)nicotinamide], the EC50 in the assay with TNFα is 59 nM. Also, at IRAK4 enzyme, the IC50 was < 1 nM.

On to `CC(C)(O)[C@H](F)CNC(=O)c1cnc(-c2ccc3cc(C#N)cnn23)cc1Nc1ccc2cnccc2n1` [Example 821, (R)-4-((1,6-naphthyridin-2-yl)amino)-6-(3-cyano-pyrrolo[1,2-b]pyridazin-7-yl)-N-(2-fluoro-3-hydroxy-3-methylbutyl)nicotinamide], for which the EC50 in the assay on TNFα was determined as 51 nM. Besides, the IC50 against IRAK4 enzyme is < 1 nM.

For the compound `CC(C)(O)[C@H](F)CNC(=O)c1cnc(-c2ccc3cc(C#N)cnn23)cc1N[C@H]1CC[C@H](N2CCOCC2)CC1` [Example 822, 6-(3-cyanopyrrolo[1,2-b]pyridazin-7-yl)-N-((R)-2-fluoro-3-hydroxy-3-methylbutyl)-4-(((1r,4R)-4-morpholinocyclohexyl)amino)nicotinamide], in the assay with TNFα, the EC50 was found to be 73 nM. On IRAK4 enzyme, inhibition was half-maximal at 1 nM (IC50).

Regarding `COCC(=O)NC[C@H]1C[C@H](Nc2cc(-c3ccc4cc(C#N)cnn34)ncc2C(=O)NC[C@@H](F)C(C)(C)O)C1` [Example 823, 6-(3-cyanopyrrolo[1,2-b]pyridazin-7-yl)-N-((R)-2-fluoro-3-hydroxy-3-methylbutyl)-4-(((1r,3R)-3-((2-methoxyacetamido)methyl)cyclobutyl)amino)nicotinamide], in the assay with TNFα, the EC50 was 47 nM. In addition, at IRAK4 enzyme, the IC50 is < 1 nM.

With `CC(C)(C)C(=O)NC[C@H]1C[C@H](Nc2cc(-c3ccc4cc(C#N)cnn34)ncc2C(=O)NC[C@@H](F)C(C)(C)O)C1` [Example 824, 6-(3-cyanopyrrolo[1,2-b]pyridazin-7-yl)-N-((R)-2-fluoro-3-hydroxy-3-methylbutyl)-4-(((1r,3R)-3-(pivalamidomethyl)cyclo-butyl)amino)nicotinamide], the EC50 in the assay with TNFα stood at 39 nM. Also, at IRAK4 enzyme, the IC50 is < 1 nM.

For the compound `CCCC(=O)NC[C@H]1C[C@H](Nc2cc(-c3ccc4cc(C#N)cnn34)ncc2C(=O)NC[C@@H](F)C(C)(C)O)C1` [Example 825, 4-(((1r,3R)-3-(butyramidomethyl)cyclo-butyl)amino)-6-(3-cyano-pyrrolo[1,2-b]pyridazin-7-yl)-N-((R)-2-fluoro-3-hydroxy-3-methylbutyl) nicotinamide], the EC50 with TNFα was 48 nM. The half-maximal inhibitory concentration (IC50) at IRAK4 enzyme was < 1 nM.

Take `CC(C)CC(=O)NC[C@H]1C[C@H](Nc2cc(-c3ccc4cc(C#N)cnn34)ncc2C(=O)NC[C@@H](F)C(C)(C)O)C1` [Example 826, 6-(3-cyanopyrrolo[1,2-b]pyridazin-7-yl)-N-((R)-2-fluoro-3-hydroxy-3-methylbutyl)-4-(((1r,3R)-3-((3-methylbutanamido)methyl)cyclobutyl)amino)nicotinamide]: in the assay on TNFα, the EC50 turned out to be 32 nM. Besides, the IC50 against IRAK4 enzyme is < 1 nM.

Consider `CC1(C(=O)NC[C@H]2C[C@H](Nc3cc(-c4ccc5cc(C#N)cnn45)ncc3C(=O)NC[C@@H](F)C(C)(C)O)C2)CC1` [Example 827, 6-(3-cyanopyrrolo[1,2-b]pyridazin-7-yl)-N-((R)-2-fluoro-3-hydroxy-3-methylbutyl)-4-(((1r,3R)-3-((1-methylcyclopropane-1-carboxamido)methyl)cyclo-butyl)amino)nicotinamide], for which the EC50 with TNFα was 15 nM. Besides, the IC50 against IRAK4 enzyme is < 1 nM.

As for `CC(C)(O)[C@H](F)CNC(=O)c1cnc(-c2ccc3cc(C#N)cnn23)cc1N[C@H]1C[C@H](CNC(=O)C2(F)CC2)C1` [Example 828, 6-(3-cyanopyrrolo[1,2-b]pyridazin-7-yl)-N-((R)-2-fluoro-3-hydroxy-3-methylbutyl)-4-(((1r,3R)-3-((1-fluorocyclopropane-1-carboxamido)methyl)cyclobutyl)amino) nicotinamide], the EC50 in the assay on TNFα was 12 nM. Further, the IC50 on IRAK4 enzyme is < 1 nM.

In the case of `CC(C)(O)[C@H](F)CNC(=O)c1cnc(-c2ccc3cc(C#N)cnn23)cc1N[C@H]1C[C@H](CNC(=O)C2(C(F)(F)F)CC2)C1` [Example 829, 6-(3-cyanopyrrolo[1,2-b]pyridazin-7-yl)-N-((R)-2-fluoro-3-hydroxy-3-methylbutyl)-4-(((1r,3R)-3-((1-(trifluoromethyl)cyclopropane-1-carboxamido)methyl)cyclobutyl)amino) nicotinamide], the EC50 with TNFα was determined as 23 nM. The IC50 against IRAK4 enzyme is < 1 nM.

In the case of `COC(=O)NC[C@H]1C[C@H](Nc2cc(-c3ccc4cc(C#N)cnn34)ncc2C(=O)NC2CCC(NC(=O)C3CC3)CC2)C1` (stereo partly drawn) [Example 830, methyl (((1R,3r)-3-((2-(3-cyanopyrrolo[1,2-b]pyridazin-7-yl)-5-(((1r,4R)-4-(cyclopropanecarboxamido)cyclohexyl)carbamoyl)pyridin-4-yl)amino)cyclobutyl)methyl)carbamate], the EC50 in the assay on TNFα came out at 23 nM. Besides, the IC50 against IRAK4 enzyme was < 1 nM.

The values above are taken from patent publication US10336762B2 (priority 2017, dated 2019).
